From US9913843B2, “Protein kinase C inhibitors and uses thereof” (Rigel Pharmaceuticals, Inc., priority 2012, dated 2018)
Like-named read-outs stand apart in the source and are kept apart here.

Test system: PKC mediated IL-2 production in human primary T cells
Assay: IL-2 ELISA, human primary T cell, anti CD3+CD28+ (whole cell functional assay for PKC mediated IL-2 production)
Assay type: cell-based
Experimental: Human primary T cells were prepared as follows. Fresh PBMC's from All Cells (Cat # PB002) were re-suspended in RPMI (RPMI-1640 with L-Glutamine; Mediatech, Inc., Herndon Va., cat. #10-040-CM) with 10% FBS and seeded into flasks and incubated at 37° C. for 2 hours to allow the monocytes to adhere. The non-adherent cells were then centrifuged and re-suspended in RPMI medium containing 40 U/ml IL2 and seeded into a flask pre-coated with 1 μg/ml aCD3 and 5 ug/ml aCD28 (Anti-Human CD3, BD Pharmingen Catalog #555336, Anti-Human CD28, Beckman Coulter Catalog #IM1376). The cells were stimulated for 3-4 days, then transferred to a fresh flask and maintained in RPMI (RPMI-1640 with L-Glutamine; Mediatech, Inc., Herndon Va., cat. #10-040-CM) with 10% FBS and 40 U/ml IL-2.
Human primary T cells (100,000 cells per well) were pre-incubated with or without test compound in RPMI-1640 with L-Glutamine and 10% FBS for 1 hour at 37° C. Cells were then stimulated by transferring them to round-bottom 96-well plates pre-coated with 1 μg/ml aCD3 and 5 μg/ml aCD28. For counter assay, cells were instead stimulated by adding 8× stock solutions of PMA and ionomycin in RPMI-1640 with L-Glutamine and 10% FBS (for final concentrations of 0.5 ng/ml PMA and 0.1 μM ionomycin, both from Calbiochem). Cells were incubated at 37° C. for 24 hours before 100 μL supernatants were harvested for quantification of IL-2 by ELISA using Human IL-2 Duoset ELISA Kit from R and D Systems, Cat. # DY202E.
Compounds 1-156 were tested in a whole cell functional assay for PKC mediated IL-2 production as follows. Human primary T cell isolation and culture: Human primary T cells were prepared as follows. Whole blood was obtained from a healthy volunteer, mixed 1:1 with PBS, layered on to Ficoll Hypaque (Amersham Pharmacia Biotech, Piscataway, N.J., Catalog #17-1440-03) in 2:1 blood/PBS:ficoll ratio and centrifuged for 30 minutes at 4° C. at 1750 rpm. The cells at the serum: ficoll interface were recovered and washed twice with 5 volumes of PBS. These freshly isolated human peripheral blood mononuclear cells were cultured in Yssel's medium containing 40 U/ml IL2 in a flask pre-coated with 1 μg/ml aCD3 and 5 μg/ml aCD28 (Anti-Human CD3, BD Pharmingen Catalog #555336, Anti-Human CD28, Beckman Coulter Catalog #IM1376). The cells were stimulated for 3-4 days, then transferred to a fresh flask and maintained in RPMI (RPMI-1640 with L-Glutamine; Mediatech, Inc., Herndon Va., cat. #10-040-CM) with 10% FBS and 40 U/ml IL-2. The primary T-cells were then washed twice with PBS to remove the IL-2.
Primary T cell stimulation and IL2 ELISA: Human primary T cells (100,000 cells per well) were pre-incubated with or without test compound in Yssel's medium for 1 hour at 37° C. Cells were then stimulated by transferring them to round-bottom 96-well plates pre-coated with 1 μg/ml aCD3 and 5 μg/ml αCD28. For counter assay, cells were instead stimulated by adding 8× stock solutions of PMA and ionomycin in Yssels (for final concentrations of 0.5 ng/ml PMA and 0.1 uM ionomycin, both from Calbiochem). Cells were incubated at 37° C. for 24 hours before 100 μL supernatants were harvested for quantification of IL-2 by ELISA using Human IL-2 Duoset ELISA Kit from R and D Systems, Cat. # DY202E.

[1] = 24 h, human primary T cells stimulated with anti-CD3 + anti-CD28, IL-2 by ELISA, read-out: IC50 for blocking IL-2 production
[2] = human primary T cells stimulated with anti-CD3 + anti-CD28, 24 h, IL-2 by ELISA, 8 pt, read-out: IL2 ELISA, Human primary T cell, anti-CD3 + CD28, 8 pt (IC50)

| IC50 [1] | IC50 [2] | Compound |
| --- | --- | --- |
| < 30 µM | 0.107 µM | N#Cc1cc(Nc2ncc(F)c(NC[C@@H]3CCCN4CCCC[C@H]34)n2)ccc1C1CC1 [Compound 1, 5-(4-(((1S,9aR)-octahydro-1H-quinolizin-1-yl)methylamino)-5-fluoropyrimidin-2-ylamino)-2-cyclopropylbenzonitrile] |
| < 30 µM | 0.372 µM | Fc1cc(C2CC2)c(-n2cnnn2)cc1Nc1ncc(F)c(NC[C@@H]2CCCN3CCCC[C@H]23)n1 [Compound 2, N2-(4-cyclopropyl-2-fluoro-5-(1H-tetrazol-1-yl)phenyl)-5-fluoro-N4-(((1S,9aR)-octahydro-1H-quinolizin-1-yl)methyl)pyrimidine-2,4-diamine] |
| < 30 µM | 1.68 µM | Cn1nnn(-c2cc(Nc3ncc(F)c(NC[C@@H]4CCCN5CCCC[C@H]45)n3)c(F)cc2C2CC2)c1=O [Compound 3, 1-(5-(4-(((1S,9aR)-octahydro-1H-quinolizin-1-yl)methylamino)-5-fluoropyrimidin-2-ylamino)-2-cyclopropyl-4-fluorophenyl)-4-methyl-1H-tetrazol-5(4H)-one] |
| < 30 µM | 0.142 µM | Cc1ccc(Nc2ncc(F)c(NC[C@@H]3CCCN4CCCC[C@H]34)n2)cc1-n1cnnn1 [Compound 4, 5-fluoro-N4-(((1S,9aR)-octahydro-1H-quinolizin-1-yl)methyl)-N2-(4-methyl-3-(1H-tetrazol-1-yl)phenyl)pyrimidine-2,4-diamine] |
| < 30 µM | 0.12 µM | N#Cc1cc(Nc2ncc(Cl)c(NCC3CCCN4CCCCC34)n2)ccc1C1CC1 [Compound 5, 5-(4-(((1S,9aR)-octahydro-1H-quinolizin-9-yl)methylamino)-5-chloropyrimidin-2-ylamino)-2-cyclopropylbenzonitrile] |
| < 30 µM | 0.0889 µM | COc1ccc(Nc2ncc(F)c(NC[C@@H]3CCCN4CCCC[C@H]34)n2)cc1-n1nnnc1C [Compound 6, 5-fluoro-N4-(((1S,9aR)-octahydro-1H-quinolizin-1-yl)methyl)-N2-(4-methoxy-3-(5-methyl-1H-tetrazol-1-yl)phenyl)pyrimidine-2,4-diamine] |
| < 30 µM | 0.428 µM | Cc1nnnn1-c1ccc(F)c(Nc2ncc(F)c(NC[C@@H]3CCCN4CCCC[C@H]34)n2)c1 [Compound 7, 5-fluoro-N2-(2-fluoro-5-(5-methyl-1H-tetrazol-1-yl)phenyl)-N4-(((1S,9aR)-octahydro-1H-quinolizin-1-yl)methyl)pyrimidine-2,4-diamine] |
| < 30 µM | 0.106 µM | Cc1nnnn1-c1cc(Nc2ncc(F)c(NC[C@@H]3CCCN4CCCC[C@H]34)n2)ccc1F [Compound 8, 5-fluoro-N2-(4-fluoro-3-(5-methyl-1H-tetrazol-1-yl)phenyl)-N4-(((1S,9aR)-octahydro-1H-quinolizin-1-yl)methyl)pyrimidine-2,4-diamine] |
| < 30 µM | 0.195 µM | Cc1ccc(Nc2ncc(F)c(NC[C@@H]3CCCN4CCCC[C@H]34)n2)cc1C#N [Compound 9, 5-(4-(((1S,9aR)-octahydro-1H-quinolizin-1-yl)methylamino)-5-fluoropyrimidin-2-ylamino)-2-methylbenzonitrile] |
| < 30 µM | 0.594 µM | N#Cc1cccc(Nc2ncc(F)c(NC[C@@H]3CCCN4CCCC[C@H]34)n2)c1 [Compound 10, 3-(4-(((1S,9aR)-octahydro-1H-quinolizin-1-yl)methylamino)-5-fluoropyrimidin-2-ylamino)benzonitrile] |
| < 30 µM | 1.08 µM | COc1cc(Nc2ncc(F)c(NC[C@@H]3CCCN4CCCC[C@H]34)n2)cc(OC)c1 [Compound 11, 5-fluoro-N4-(((1S,9aR)-octahydro-1H-quinolizin-1-yl)methyl)-N2-(3,5-dimethoxyphenyl)pyrimidine-2,4-diamine] |
| < 30 µM | 0.889 µM | N#Cc1cc(Nc2ncc(F)c(NC[C@@H]3CCCN4CCCC[C@H]34)n2)c(F)cc1C1CC1 [Compound 12, 5-(4-(((1S,9aR)-octahydro-1H-quinolizin-1-yl)methylamino)-5-fluoropyrimidin-2-ylamino)-2-cyclopropyl-4-fluorobenzonitrile] |
| < 30 µM | 4.48 µM | Fc1cnc(Nc2ccccc2)nc1NC[C@@H]1CCCN2CCCC[C@H]12 [Compound 13, 5-fluoro-N4-(((1S,9aR)-octahydro-1H-quinolizin-1-yl)methyl)-N2-phenylpyrimidine-2,4-diamine] |
| < 30 µM | 0.201 µM | Cn1nnn(-c2cc(Nc3ncc(F)c(NC[C@@H]4CCCN5CCCC[C@H]45)n3)ccc2OC2COC2)c1=O [Compound 14, 1-(5-(4-(((1S,9aR)-octahydro-1H-quinolizin-1-yl)methylamino)-5-fluoropyrimidin-2-ylamino)-2-(oxetan-3-yloxy)phenyl)-4-methyl-1H-tetrazol-5(4H)-one] |
| < 30 µM | 10.7 µM | Cc1cc(C2CC2)c(-n2nnn(C)c2=O)cc1Nc1ncc(F)c(NC[C@@H]2CCCN3CCCC[C@H]23)n1 [Compound 15, 1-(5-(4-(((1S,9aR)-octahydro-1H-quinolizin-1-yl)methylamino)-5-fluoropyrimidin-2-ylamino)-2-cyclopropyl-4-methylphenyl)-4-methyl-1H-tetrazol-5(4H)-one] |
| < 30 µM | 0.703 µM | CC(C)N1C(=O)C(C)(C)Oc2cc(Nc3ncc(F)c(NC[C@@H]4CCCN5CCCC[C@H]45)n3)ccc21 [Compound 16, 7-(4-(((1S,9aR)-octahydro-1H-quinolizin-1-yl)methylamino)-5-fluoropyrimidin-2-ylamino)-4-isopropyl-2,2-dimethyl-2H-benzo[b][1,4]oxazin-3(4H)-one] |
| < 30 µM | 0.405 µM | COc1cc(Nc2ncc(F)c(NC[C@@H]3CCCN4CCCC[C@H]34)n2)cc(-n2nnn(C)c2=O)c1 [Compound 17, 1-(3-(4-(((1S,9aR)-octahydro-1H-quinolizin-1-yl)methylamino)-5-fluoropyrimidin-2-ylamino)-5-methoxyphenyl)-4-methyl-1H-tetrazol-5(4H)-one] |
| < 30 µM | 0.127 µM | CC1(C)Oc2cc(Nc3ncc(F)c(NC[C@@H]4CCCN5CCCC[C@H]45)n3)ccc2N(CC2CC2)C1=O [Compound 18, 7-(4-(((1S,9aR)-octahydro-1H-quinolizin-1-yl)methylamino)-5-fluoropyrimidin-2-ylamino)-4-(cyclopropylmethyl)-2,2-dimethyl-2H-benzo[b][1,4]oxazin-3(4H)-one] |
| < 30 µM | 0.554 µM | Fc1cnc(Nc2ccc(N3CCOCC3)c(C(F)(F)F)c2)nc1NC[C@@H]1CCCN2CCCC[C@H]12 [Compound 19, 5-fluoro-N2-(3-(trifluoromethyl)-4-morpholinophenyl)-N4-(((1S,9aR)-octahydro-1H-quinolizin-1-yl)methyl)pyrimidine-2,4-diamine] |
| < 30 µM | 1.07 µM | Fc1cnc(Nc2ccc3c(c2)OC(F)(F)C(F)(F)O3)nc1NC[C@@H]1CCCN2CCCC[C@H]12 [Compound 20, 5-fluoro-N2-(2,2,3,3-tetrafluoro-2,3-dihydrobenzo[b][1,4]dioxin-7-yl)-N4-(((1S,9aR)-octahydro-1H-quinolizin-1-yl)methyl)pyrimidine-2,4-diamine] |
| < 30 µM | 0.702 µM | COc1cc(F)cc(Nc2ncc(F)c(NC[C@@H]3CCCN4CCCC[C@H]34)n2)c1 [Compound 21, 5-fluoro-N2-(3-fluoro-5-methoxyphenyl)-N4-(((1S,9aR)-octahydro-1H-quinolizin-1-yl)methyl)pyrimidine-2,4-diamine] |
